target: T1, human TRPA1 (Homo sapiens (Human), UniProt O75762); assay: Measurement of TRPA1 antagonist activity (1): intracellular calcium increase; type: cell-based; conditions: 293T cells transfected with human TRPA1 expression plasmid; allylisothiocyanate 20 μM stimulation; intracellular calcium fluorescence; read-out: hTRPA1 IC50
In short: (§1)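 HEK293T cells transiently transfected with full-length human TRPA1, loaded with Calcium4 dye in HBSS/20 mM HEPES pH 7.2. Test compound preincubated 10 min, then allylisothiocyanate added at 20 μM final and fluorescence change followed for 5 min. IC50 from sigmoid fit of percent inhibition relative to agonist and buffer controls.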

T1 sequence (O75762 whole entry): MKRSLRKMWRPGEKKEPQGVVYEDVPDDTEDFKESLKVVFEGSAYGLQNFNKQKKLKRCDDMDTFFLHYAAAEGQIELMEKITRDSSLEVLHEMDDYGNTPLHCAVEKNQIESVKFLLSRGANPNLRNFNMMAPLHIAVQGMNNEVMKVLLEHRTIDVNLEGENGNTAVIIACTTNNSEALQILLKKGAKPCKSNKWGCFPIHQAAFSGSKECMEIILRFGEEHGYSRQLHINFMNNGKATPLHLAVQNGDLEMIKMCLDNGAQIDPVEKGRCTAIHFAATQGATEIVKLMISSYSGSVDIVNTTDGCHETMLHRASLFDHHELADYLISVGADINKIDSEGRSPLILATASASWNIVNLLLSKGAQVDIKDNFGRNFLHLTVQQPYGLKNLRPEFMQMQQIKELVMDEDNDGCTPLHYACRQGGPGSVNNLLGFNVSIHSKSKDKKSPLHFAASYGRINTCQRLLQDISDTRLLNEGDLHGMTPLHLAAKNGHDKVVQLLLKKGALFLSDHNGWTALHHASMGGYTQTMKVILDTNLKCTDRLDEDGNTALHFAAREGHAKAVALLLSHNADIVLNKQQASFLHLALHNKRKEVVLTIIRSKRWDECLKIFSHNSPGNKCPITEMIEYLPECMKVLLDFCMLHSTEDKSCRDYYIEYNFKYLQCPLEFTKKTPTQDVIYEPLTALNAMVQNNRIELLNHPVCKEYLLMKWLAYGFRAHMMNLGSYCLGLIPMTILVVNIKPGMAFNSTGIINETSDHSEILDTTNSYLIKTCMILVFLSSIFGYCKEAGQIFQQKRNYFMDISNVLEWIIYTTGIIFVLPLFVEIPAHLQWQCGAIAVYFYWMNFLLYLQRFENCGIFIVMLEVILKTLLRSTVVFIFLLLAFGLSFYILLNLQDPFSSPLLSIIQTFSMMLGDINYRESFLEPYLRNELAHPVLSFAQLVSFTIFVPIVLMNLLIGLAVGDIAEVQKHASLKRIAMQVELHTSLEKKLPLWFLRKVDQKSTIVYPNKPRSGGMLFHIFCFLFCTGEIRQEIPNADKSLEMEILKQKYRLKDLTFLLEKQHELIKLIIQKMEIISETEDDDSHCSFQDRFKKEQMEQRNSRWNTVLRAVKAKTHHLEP

First: C[C@H](NS(=O)(=O)c1cc2cc(F)ccc2o1)C(=O)NCc1cc(-c2ccc(C(F)(F)F)nc2)ncn1 [Example 191, (2S)-2-[(5-fluorobenzofuran-2-yl)sulfonylamino]-N-[[6-[6-(trifluoromethyl)-3-pyridyl]pyrimidin-4-yl]methyl]propanamide]
Second: O=C(NCc1cc(-c2ccc(C(F)(F)F)cn2)ccn1)[C@@H]1CCCN1S(=O)(=O)c1cc2ccccc2o1 [Example 179, (2S)-1-(benzofuran-2-ylsulfonyl)-N-[[4-[5-(trifluoromethyl)-2-pyridyl]-2-pyridyl]methyl]pyrrolidine-2-carboxamide]
The IC50 of the first is 9.2-fold higher: 12 nM for the first, 1.3 nM for the second. The second is the more potent here.

`O=C(NCc1cncc(-c2ccc(C(F)(F)F)cn2)c1)[C@@H]1CCCN1S(=O)(=O)c1cc2ccccc2o1` [Example 87, (2S)-1-(benzofuran-2-ylsulfonyl)-N-[[5-[5-(trifluoromethyl)-2-pyridyl]-3-pyridyl]methyl]pyrrolidine-2-carboxamide] showed an IC50 of 26 nM.

target: T1, human TRPA1; assay: Measurement of TRPA1 antagonist activity (2): as (1), different lot of human TRPA1 expression plasmid; type: cell-based; conditions: 293T cells transfected with human TRPA1, allylisothiocyanate 20 μM stimulation, calcium fluorescence, read-out: hTRPA1 IC50
In short: as §1, with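 “with” for “with full-length”, “TRPA1 plasmid (different lot),” for “TRPA1,”, “read” for “followed”, “of” for “of percent”, “AITC-alone” for “agonist”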

`C[C@H](NS(=O)(=O)c1cc2cc(F)ccc2o1)C(=O)NCc1cc(-c2ccc(C(F)(F)F)nc2)ncn1` [Example 191, (2S)-2-[(5-fluorobenzofuran-2-yl)sulfonylamino]-N-[[6-[6-(trifluoromethyl)-3-pyridyl]pyrimidin-4-yl]methyl]propanamide] and `C[C@H](NS(=O)(=O)c1cc2cc(F)ccc2o1)C(=O)NCc1cc(-c2ccc(C(F)(F)F)nc2)nc(N(C)C)n1` [Example 372, (2S)-N-[[2-(dimethylamino)-6-[6-(trifluoromethyl)-3-pyridyl]pyrimidin-4-yl]methyl]-2-[(5-fluorobenzofuran-2-yl)sulfonylamino]propanamide] are within 1.5-fold of each other in IC50: 35 nM for the first, 27 nM for the second.

First: O=C(NCc1cc(-c2ccc(C(F)(F)F)cn2)ccn1)[C@@H]1CCCN1S(=O)(=O)c1cc2ccccc2o1 [Example 179, (2S)-1-(benzofuran-2-ylsulfonyl)-N-[[4-[5-(trifluoromethyl)-2-pyridyl]-2-pyridyl]methyl]pyrrolidine-2-carboxamide]
Second: O=C(NCc1cc(-c2ccc(C(F)(F)F)cn2)ccn1)[C@@H]1CCCN1S(=O)(=O)c1cc2ccncc2o1 [Example 346, (2S)-1-furo[2,3-c]pyridin-2-ylsulfonyl-N-[[4-[5-(trifluoromethyl)-2-pyridyl]-2-pyridyl]methyl]pyrrolidine-2-carboxamide]
The IC50 of the first is 170-fold lower: 4.1 nM for the first, 700 nM for the second. The first is the more potent here.

`CN(C)c1nc(CNC(=O)[C@@H]2CCN2S(=O)(=O)c2cc3cc(F)ccc3o2)cc(-c2ccc(C(F)(F)F)nc2)n1` [Example 384, (2S)-N-[[2-(dimethylamino)-6-[6-(trifluoromethyl)-3-pyridyl]pyrimidin-4-yl]methyl]-1-(5-fluorobenzofuran-2-yl)sulfonyl-azetidine-2-carboxamide] and `CN(C)c1nc(CNC(=O)[C@@H]2CCCN2S(=O)(=O)c2cc3ccccc3o2)cc(-c2ccc(C(F)(F)F)nc2)n1` [Example 371, (2S)-1-(benzofuran-2-ylsulfonyl)-N-[[2-(dimethylamino)-6-[6-(trifluoromethyl)-3-pyridyl]pyrimidin-4-yl]methyl]pyrrolidine-2-carboxamide] are within 1.5-fold of each other in IC50: 13 nM for the first, 10 nM for the second.

Compared with `O=C(NCc1cc(-c2ccc(C(F)(F)F)cn2)ncn1)[C@@H]1CCN1S(=O)(=O)c1cc2cc(F)ccc2o1` [Example 401, (2S)-1-(5-fluorobenzofuran-2-yl)sulfonyl-N-[[6-[5-(trifluoromethyl)-2-pyridyl]pyrimidin-4-yl]methyl]azetidine-2-carboxamide], `O=C(NCc1cc(-c2ccc(OC(F)(F)F)cc2)ncn1)[C@@H]1CCN1S(=O)(=O)c1cc2cc(F)ccc2o1` [Example 395] is 3.8-fold lower in IC50: 12 nM for the first, 3.2 nM for the second. The second is the more potent here.

Compared with `O=C(NCc1cccc(-c2cnc(C(F)(F)F)cn2)c1)[C@@H]1CCN1S(=O)(=O)c1cc2cc(F)ccc2o1` [Example 392, (2S)-1-(5-fluorobenzofuran-2-yl)sulfonyl-N-[[3-[5-(trifluoromethyl)pyrazin-2-yl]phenyl]methyl]azetidine-2-carboxamide], `O=C(NCc1cccc(-c2cnc(C(F)(F)F)cn2)c1)[C@@H]1CCCN1S(=O)(=O)c1cc2cc(F)ccc2o1` [Example 399, (2S)-1-(5-fluorobenzofuran-2-yl)sulfonyl-N-[[3-[5-(trifluoromethyl)pyrazin-2-yl]phenyl]methyl]pyrrolidine-2-carboxamide] is 1.8-fold lower in IC50: 4.6 nM for the first, 2.5 nM for the second.

`CC(C)N(CC(=O)NCc1cc(-c2ccc(OC(F)(F)F)cc2)ncn1)S(=O)(=O)c1cc2cc(F)ccc2o1` [Example 364, 2-[(5-fluorobenzofuran-2-yl)sulfonyl-isopropyl-amino]-N-[[6-[4-(trifluoromethoxy)-phenyl]pyrimidin-4-yl]methyl]acetamide] and `CN(CC(=O)NCc1cc(-c2ccc(OC(F)(F)F)cc2)ncn1)S(=O)(=O)c1cc2cc(F)ccc2o1` [Example 362, 2-[(5-fluorobenzofuran-2-yl)sulfonyl-methyl-amino]-N-[[6-[4-(trifluoromethoxy)-phenyl]pyrimidin-4-yl]methyl]acetamide] are within 1.5-fold of each other in IC50: 10 nM for the first, 7 nM for the second.

`O=C(NCc1cc(-c2cnc(C(F)(F)F)cn2)ccn1)[C@@H]1CCCN1S(=O)(=O)c1cc2cc(F)ccc2o1` [Example 405, (2S)-1-(5-fluorobenzofuran-2-yl)sulfonyl-N-[[4-[5-(trifluoromethyl)pyrazin-2-yl]-2-pyridyl]methyl]pyrrolidine-2-carboxamide] and `CN(C)c1nc(CNC(=O)[C@@H]2CCCN2S(=O)(=O)c2cc3cc(F)ccc3o2)cc(-c2ccc(C(F)(F)F)cc2)n1` [Example 378, (2S)-N-[[2-(dimethylamino)-6-[4-(trifluoromethyl)phenyl]-pyrimidin-4-yl]methyl]-1-(5-fluorobenzofuran-2-yl)sulfonyl-pyrrolidine-2-carboxamide] are within 1.5-fold of each other in IC50: 3.5 nM for the first, 5.2 nM for the second.

`CC(C)N(CC(=O)NCc1cc(-c2cnc(C(F)(F)F)nc2)ncn1)S(=O)(=O)c1cc2cc(F)ccc2o1` [Example 360, 2-[(5-fluorobenzofuran-2-yl)sulfonyl-isopropyl-amino]-N-[[6-[2-(trifluoromethyl)pyrimidin-5-yl]pyrimidin-4-yl]methyl]acetamide] and `CC(C)N(CC(=O)NCc1cc(-c2ccc(C(F)(F)F)nc2)ncn1)S(=O)(=O)c1cc2cc(F)ccc2o1` [Example 359, 2-[(5-fluorobenzofuran-2-yl)sulfonyl-isopropyl-amino]-N-[[6-[6-(trifluoromethyl)-3-pyridyl]pyrimidin-4-yl]methyl]acetamide] are within 1.5-fold of each other in IC50: 10 nM for the first, 7.9 nM for the second.

`CN(C)c1nc(CNC(=O)[C@@H]2CCCN2S(=O)(=O)c2cc3ccccc3o2)cc(-c2ccc(C(F)(F)F)cc2O)n1` [Example 376, (2S)-1-(benzofuran-2-ylsulfonyl)-N-[[2-(dimethylamino)-6-[2-hydroxy-4-(trifluoromethyl)phenyl]-pyrimidin-4-yl]methyl]pyrrolidine-2-carboxamide] and `O=C(NCc1ccnc(-c2ccc(C(F)(F)F)cc2O)c1)[C@@H]1CCN1S(=O)(=O)c1cc2ccccc2o1` [Example 411, (2S)-1-(benzofuran-2-ylsulfonyl)-N-[[2-[2-hydroxy-4-(trifluoromethyl)phenyl]-4-pyridyl]methyl]azetidine-2-carboxamide] are within 1.5-fold of each other in IC50: 21 nM for the first, 25 nM for the second.

Compared with `O=C(CN(CC1CCNCC1)S(=O)(=O)c1cc2cc(F)ccc2o1)NCc1cc(-c2ccc(C(F)(F)F)cn2)ccn1` [Example 423, 2-[(5-fluorobenzofuran-2-yl)sulfonyl-(4-piperidylmethyl)amino]-N-[[4-[5-(trifluoromethyl)-2-pyridyl]-2-pyridyl]methyl]acetamide], `CN(CC(=O)NCc1cc(-c2ccc(C(F)(F)F)cn2)ccn1)S(=O)(=O)c1cc2cc(F)ccc2o1` [Example 339, 2-[(5-fluorobenzofuran-2-yl)sulfonyl-methyl-amino]-N-[[4-[5-(trifluoromethyl)-2-pyridyl]-2-pyridyl]methyl]acetamide] is 3-fold lower in IC50: 33 nM for the first, 11 nM for the second. The second is the more potent here.

First: C[C@H](NS(=O)(=O)c1cc2cnccc2o1)C(=O)NCc1ccnc(-c2ccc(C(F)(F)F)cc2)c1 [Example 366, (2S)-2-(furo[3,2-c]pyridin-2-ylsulfonylamino)-N-[[2-[4-(trifluoromethyl)phenyl]-4-pyridyl]methyl]propanamide]
Second: C[C@H](NS(=O)(=O)c1cc2cnccc2o1)C(=O)NCc1ccc(O)c(-c2ccc(C(F)(F)F)cn2)c1 [Example 373, (2S)-2-(furo[3,2-c]pyridin-2-ylsulfonylamino)-N-[[4-hydroxy-3-[5-(trifluoromethyl)-2-pyridyl]-phenyl]methyl]propanamide]
The IC50 of the first is 2.4-fold higher: 190 nM for the first, 79 nM for the second. The second is the more potent here.

`C=CCN([C@@H](C)C(=O)NCc1cc(-c2ccc(C(F)(F)F)cn2)ccn1)S(=O)(=O)c1cc2cc(F)ccc2o1` [Example 417, (2S)-2-[allyl-(5-fluorobenzofuran-2-yl)sulfonyl-amino]-N-[[4-[5-(trifluoromethyl)-2-pyridyl]-2-pyridyl]methyl]propanamide] and `CC(C)N(CC(=O)NCc1cc(-c2ccc(C(F)(F)F)cc2)ncn1)S(=O)(=O)c1cc2cnccc2o1` [Example 368, 2-[furo[3,2-c]pyridin-2-ylsulfonyl(isopropyl)amino]-N-[[6-[4-(trifluoromethyl)-phenyl]pyrimidin-4-yl]methyl]acetamide] are within 1.5-fold of each other in IC50: 14 nM for the first, 13 nM for the second.

Compared with `O=C(NCc1cc(-c2ccc(C(F)(F)F)cc2)nc(N2CCCC2)n1)[C@@H]1CCCN1S(=O)(=O)c1cc2ccccc2o1` [Example 329, (2S)-1-(benzofuran-2-ylsulfonyl)-N-[[2-pyrrolidin-1-yl-6-[4-(trifluoromethyl)phenyl]pyrimidin-4-yl]methyl]pyrrolidine-2-carboxamide], `O=C(NCc1cncc(-c2ccc(C(F)(F)F)cn2)c1)[C@@H]1CCCN1S(=O)(=O)c1cc2ccccc2o1` [Example 87, (2S)-1-(benzofuran-2-ylsulfonyl)-N-[[5-[5-(trifluoromethyl)-2-pyridyl]-3-pyridyl]methyl]pyrrolidine-2-carboxamide] is 3.7-fold higher in IC50: 14 nM for the first, 52 nM for the second.

Source: patent US10626112B2, “Heterocyclic sulfonamide derivative and medicine comprising same” (EA PHARMA CO., LTD., priority 2014, dated 2020)
